The conditions of the series: Liquid, Ebulliometric method (Recirculating still).

Numbers after ± are expanded uncertainties.

What is called vapor or sublimation pressure is the pressure of vapour in equilibrium with the condensed phase. As to `O=CO` [formic acid], the “vapor or sublimation pressure” value worked out at 153.7 ± 1 kPa (388.15 K) and 200.6 ± 1 kPa (398.15 K).

The values are drawn from the NIST ThermoML archive (doi:10.1021/acs.jced.6b00139).
